Laboratory results as given in patent EP1717234A1, “Phenoxypropylpiperidines and -pyrrolidines and their use as histamine H3-receptor ligands” (BIOPROJET, priority 2005, dated 2006).
Where two headings read alike, the source gives them in different places.

Columns and labels:
CYP2D6 = CYP2D6 (Homo sapiens, UniProt P10635); assay: Cytochrome inhibition, fluorometric microtiter plate assay (substrate AMMC); assay type: biochemical
Excerpt: (§1) Among the xenobiotic-metabolizing CYPs, five forms, CYP1A2, CYP2C9, CYP2C19, CYP2D6 and CYP3A4 appear to be the major CYP isoforms responsible for the oxidative metabolism of drugs or xenobiotics. Inhibition of CYP-mediated metabolism, often the mechanism for drug-drug interactions, can limit the use of a drug because of adverse clinical effects. The potential for CYP enzyme inhibition is routinely assessed by performing in vitro inhibition studies by measuring the rates of metabolism of a probe biotransformation in the presence and absence of test molecules. […] The incubation conditions for each cytochrome isoform were as follow: [table]

CYP3A4 = CYP3A4 (Homo sapiens, UniProt P08684); assay: Cytochrome inhibition, fluorometric microtiter plate assay (substrate BFC); assay type: biochemical
Sequence of CYP3A4 (P08684 whole entry): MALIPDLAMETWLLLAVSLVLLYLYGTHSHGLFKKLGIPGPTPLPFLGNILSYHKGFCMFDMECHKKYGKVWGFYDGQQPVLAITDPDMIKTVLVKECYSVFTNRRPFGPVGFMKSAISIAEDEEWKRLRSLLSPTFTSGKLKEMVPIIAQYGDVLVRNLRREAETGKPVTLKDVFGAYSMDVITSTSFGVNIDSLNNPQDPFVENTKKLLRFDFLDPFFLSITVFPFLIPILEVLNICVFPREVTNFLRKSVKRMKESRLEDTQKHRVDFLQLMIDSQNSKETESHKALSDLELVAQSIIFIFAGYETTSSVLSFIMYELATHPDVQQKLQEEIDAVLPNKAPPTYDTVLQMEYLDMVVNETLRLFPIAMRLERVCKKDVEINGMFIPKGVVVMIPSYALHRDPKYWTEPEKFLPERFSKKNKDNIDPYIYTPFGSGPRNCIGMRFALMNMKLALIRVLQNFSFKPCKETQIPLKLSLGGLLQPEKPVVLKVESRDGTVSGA
Excerpt: as §1

[1] = target: human histamine H3 receptors (Homo sapiens, UniProt Q9Y5N1); assay: H3 binding ([125I]iodoproxyfan, membranes); settings: hH3 binding of the radioligand
Sequence of human histamine H3 receptors (Q9Y5N1 whole entry): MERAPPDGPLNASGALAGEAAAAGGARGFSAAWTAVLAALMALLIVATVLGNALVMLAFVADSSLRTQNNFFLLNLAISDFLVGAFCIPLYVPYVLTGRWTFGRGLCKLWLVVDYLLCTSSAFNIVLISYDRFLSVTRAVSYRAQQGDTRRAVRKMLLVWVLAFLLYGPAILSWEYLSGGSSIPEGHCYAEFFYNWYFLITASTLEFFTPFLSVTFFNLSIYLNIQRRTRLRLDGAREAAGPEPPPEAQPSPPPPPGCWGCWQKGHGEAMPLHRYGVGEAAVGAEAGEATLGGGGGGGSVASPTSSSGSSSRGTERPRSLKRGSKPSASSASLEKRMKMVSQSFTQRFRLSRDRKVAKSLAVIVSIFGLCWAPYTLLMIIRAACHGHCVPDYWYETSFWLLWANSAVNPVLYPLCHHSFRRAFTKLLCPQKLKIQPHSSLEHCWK
Protocol: Membranes expressing human histamine H3 receptors were incubated 1 hour at room temperature in binding buffer containing 50 mM Na2HPO4/KH2PO4 pH 7.5 in a final volume of 200 µl. […] Non-specific binding was determined in the presence of 1 µM lmetit. The reaction was stopped by rapid filtration through GF/B filters (pre-soaked for 2 hours with 0.3% polyethyleneimine) followed by 3 ice cold binding buffer washes. The filter-bound radioactivity was measured in a liquid scintillation counter with 50µl of scintillation fluid.

[2] = compounds of the invention, human recombinant CYP2D6
[3] = compounds of the invention, human recombinant CYP3A4

Sequence of CYP2D6 (P10635 whole entry, canonical isoform): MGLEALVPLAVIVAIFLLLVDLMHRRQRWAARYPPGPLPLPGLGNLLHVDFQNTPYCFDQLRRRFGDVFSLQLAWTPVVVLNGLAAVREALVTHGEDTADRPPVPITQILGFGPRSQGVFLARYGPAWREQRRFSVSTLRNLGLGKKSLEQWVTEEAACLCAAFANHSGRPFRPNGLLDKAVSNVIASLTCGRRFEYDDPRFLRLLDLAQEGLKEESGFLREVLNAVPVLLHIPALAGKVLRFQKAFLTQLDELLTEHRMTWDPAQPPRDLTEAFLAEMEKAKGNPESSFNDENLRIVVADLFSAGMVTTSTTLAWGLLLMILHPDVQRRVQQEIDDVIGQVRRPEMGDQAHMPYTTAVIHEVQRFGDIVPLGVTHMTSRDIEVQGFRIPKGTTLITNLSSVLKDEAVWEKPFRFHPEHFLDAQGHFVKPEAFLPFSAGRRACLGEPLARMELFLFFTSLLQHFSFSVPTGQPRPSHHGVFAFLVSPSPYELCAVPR

IC50 (CYP2D6; [2]) | IC50 (CYP3A4; [3]) | SMILES | also measured
> 100000 nM | > 100000 nM | C[C@H]1C[C@H](C)CN(CCCOc2ccc(C3=NCCC3)cc2)C1 (relative stereo) [Example 17, trans-1-{3-[4-(4,5-dihydro-3H-pyrrol-2-yl)phenoxy]propyl}-3,5-dimethylpiperidine] | 
> 100000 nM |  | C[C@H]1C[C@H](C)CN(CCCOc2ccc(C(=O)N(C)C)cc2)C1 (relative stereo) [Example 1, trans-1-{3-[4-(N,N-dimethylcarbamoyl)phenoxy]propyl}-3,5-dimethylpiperidine] | 
 | > 2000 nM | Cc1ccc(-c2ccc(OCCCN3CCCCC3)cc2)cc1 [Example 24, 1-{3-[(4'-methylbiphenyl-4-yl)oxy]propyl}piperidine] | 
 |  | Ic1ccc(COCCCc2cnc[nH]2)cc1 [[^125]iodoproxyfan] | Kd [1]: 0.078 ± 0.006 nM
 |  | Cc1cc(-c2ccc(OCCCN3CCC[C@H](C)C3)cc2)ccn1 [Example 59] | IC50 (CYP2D6; read-out: CYP2D6 (IC50, concentrations for 50% inhibition), comparative compounds of WO 00/06254): 1000 nM; IC50 (CYP3A4; read-out: CYP3A4 (IC50, concentrations for 50% inhibition), comparative compounds of WO 00/06254): > 1000 nM
